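Test compounds were applied to cells in 96-well plates for 48 hours at 5 doses. Definition used: TGI = concentration required for complete inhibition of growth.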
Legend:
Test in all cases: DTP human tumour cell line panel, 48 h
[1] = test system: A498 renal
[2] = test system: A549 NSCLC
[3] = test system: BT-549 breast
[4] = test system: COLO 205 colon
[5] = test system: EKVX NSCLC
[6] = test system: IGROV1 ovarian
[7] = test system: K-562 leukemia
[8] = test system: KM12 colon
[9] = test system: M14 melanoma
[10] = test system: MCF7 breast
[11] = test system: MDA-MB-435
[12] = test system: MOLT-4 leukemia
[13] = test system: NCI/ADR-RES ovarian
[14] = test system: OVCAR-8 ovarian
[15] = test system: SF-268 CNS
[16] = test system: SNB-19 CNS
[17] = test system: UACC-257 melanoma

| SMILES | TGI [1] [µM] | TGI [2] [µM] | TGI [3] [µM] | TGI [4] [µM] | TGI [5] [µM] | TGI [6] [µM] | TGI [7] [µM] | TGI [8] [µM] | TGI [9] [µM] | TGI [10] [µM] | TGI [11] [µM] | TGI [12] [µM] | TGI [13] [µM] | TGI [14] [µM] | TGI [15] [µM] | TGI [16] [µM] | TGI [17] [µM] |
| --- | --- | --- | --- | --- | --- | --- | --- | --- | --- | --- | --- | --- | --- | --- | --- | --- | --- |
| O=C(c1ccccc1)N1CCC(CC2(c3cc4ccccc4[nH]3)OCCO2)CC1 | 62.8 | > 100 | > 100 | 40.1 | > 100 | > 100 | 37.6 | > 100 | 39.6 | 43.9 | 51 | 58.1 | > 100 | > 100 | > 100 | > 100 | 51.9 |
| COc1ccc(OC)c2c1C=CC(Br)=CC2 | > 1 | > 1 | 0.835 | > 1 | > 1 | > 1 | 0.419 | 0.85 | 0.822 | > 1 | 0.853 | 0.478 | > 1 | > 1 | > 1 | > 1 | 0.942 |
| CC(Nc1ccc(Cl)c(Cl)c1)c1ccncc1 (centres undefined) | 61 | > 100 | 86.3 | 31.4 | > 100 | 50.7 | > 100 | 40.1 | 68.2 | > 100 | > 100 | > 100 | > 100 | 76.2 | > 100 | > 100 | > 100 |
| CCOC(=O)NC(Nc1ccc(F)cc1)(C(=O)OCC)C(F)(F)F (centres undefined) | > 100 | > 100 | > 100 | > 100 | > 100 | > 100 | > 100 | > 100 | > 100 | > 100 | > 100 | > 100 | > 100 | > 100 | > 100 | > 100 | > 100 |
| O=Cc1cc(C(=O)OCc2ccccc2)n(S(=O)(=O)c2ccccc2)c1 | – | 68.7 | 33.9 | 55.1 | 94.4 | 84 | > 100 | 37.6 | 36.2 | 67.2 | 12.9 | > 100 | 98.6 | > 100 | 65.5 | > 100 | 64 |
| CSc1nc2c(c(=O)n1C)N=C(c1ccc([N+](=O)[O-])cc1)CC(c1ccccc1)N2 (centres undefined) | > 100 | > 100 | > 100 | > 100 | > 100 | > 100 | > 100 | > 100 | > 100 | > 100 | > 100 | > 100 | > 100 | > 100 | – | > 100 | > 100 |
| CCOP(=O)(OCC)C(C(=O)OC)C(=O)C(=O)Nc1cccc(O)c1 (centres undefined) | > 100 | > 100 | > 100 | > 100 | > 100 | > 100 | – | > 100 | > 100 | > 100 | > 100 | > 100 | > 100 | > 100 | > 100 | > 100 | > 100 |
| O=C1Nc2nccnc2C(=O)N2CCC[C@@H]12 | – | > 100 | > 100 | > 100 | > 100 | > 100 | > 100 | > 100 | > 100 | > 100 | > 100 | > 100 | > 100 | > 100 | > 100 | > 100 | > 100 |
| CCCSc1ccc2[nH]c(N3C(=O)/C(=C/c4ccc(SC)cc4)N=C3c3ccccc3)cc2c1 | > 50 | > 50 | > 50 | > 43.2 | > 50 | > 50 | 5.43 | 32.7 | > 50 | > 50 | 21.2 | – | > 50 | > 50 | > 50 | > 50 | > 50 |
| CCOC(=O)c1nc2ccc(C(F)(F)F)cc2nc1NCc1ccc(OC)c(OC)c1 | > 100 | > 100 | > 100 | > 100 | > 100 | > 100 | > 100 | > 100 | > 100 | > 100 | > 100 | > 100 | > 100 | > 100 | > 100 | > 100 | > 100 |
| CCC(C)[C@@H](Nc1c(O)c2c(c(O)c1Cl)C(=O)C=CC2=O)C(=O)OC (some centres undefined) | – | > 10 | > 10 | 4.02 | > 10 | > 10 | > 10 | > 10 | 9.41 | > 10 | > 10 | 5.94 | > 10 | > 10 | > 10 | > 10 | 6.59 |
| COc1cccc(C2c3cc4c(cc3OC(NNS(=O)(=O)c3ccc(C)cc3)C2C)OCO4)c1OC (centres undefined) | 6.42 | 11.4 | 36 | 3.79 | > 100 | 15.3 | 6.79 | 13.5 | > 100 | 79.5 | > 100 | 9.02 | – | > 100 | > 100 | 86.6 | > 100 |
| CC(=O)c1ccc2c(c1)CC1(C2)Cc2cc3c(c(C(=O)O)c2C1)CCC3 (centres undefined) | > 100 | > 100 | > 100 | > 100 | > 100 | > 100 | > 100 | > 100 | – | > 100 | > 100 | > 100 | > 100 | > 100 | > 100 | – | > 100 |
| CC1=C(O)c2ccccc2C(=O)C1=O | > 100 | > 100 | 99.3 | > 100 | > 100 | > 100 | > 100 | > 100 | > 100 | > 100 | > 100 | > 100 | > 100 | > 100 | > 100 | > 100 | > 100 |

Source: PubChem BioAssay (NCI)
